Laboratory results: publication PMC11579541, “In vitro, in vivo, and in silico approaches for evaluating the preclinical DMPK profiles of ammoxetine, a novel chiral serotonin and norepinephrine reuptake inhibitor” (Frontiers in Pharmacology, 2024)

Assays:
Format in all cases: in vitro ADME
CYP 2C19 = CYP 2C19 (Homo sapiens, UniProt P33261); experiment: CYP inhibition, cocktail-substrate method in HLM; parameters: 0.5 mg/mL HLM, 1 mmol/L NADPH, and a cocktail of 10 probe substrates for 9 CYP isoforms; tissue BD (Woburn, USA); host or cells: pooled human liver microsomes; conditions: probe S-mephenytoin
Protocol: (§1) To assess the CYP inhibition profiling of ammoxetine, a high-throughput assay based on the cocktail-substrate method was performed, as described in the literature ([Kim et al., 2005]; [Kozakai et al., 2014]). Microsomal incubations were conducted in triplicate for 30 min at 37°C in a reaction system (200 μL) consisting of […] potassium phosphate buffer (pH 7.4), 0.5 mg/mL HLM, 1 mmol/L NADPH, and a cocktail of 10 probe substrates for 9 CYP isoforms. The final concentration of each CYP-specific substrate was chosen to be close to the Michaelis-Menten constant (K m ) value of the respective substrate ([Kim et al., 2005]; [Lee et al., 2024]). For instance, phenacetin (CYP 1A2) was used at a concentration of 50 μmol/L, coumarin (CYP 2A6) at 5 μmol/L, bupropion (CYP 2B6) at 50 μmol/L, amodiaquine (CYP 2C8) at 5 μmol/L, tolbutamide (CYP 2C9) at 100 μmol/L, S-mephenytoin (CYP 2C19) at 100 μmol/L, dextromethorphan (CYP 2D6) at 5 μmol/L, chlorzoxazone (CYP 2E1) at 50 μmol/L, and testosterone and midazolam (CYP 3A4) at 50 μmol/L. Ammoxetine was evaluated at five concentrations: 0.1, 1, 10, 50, and 100 μmol/L. Additionally, a blank control without ammoxetine was included. The incubation was terminated by adding an equal volume of ice-cold acetonitrile/methanol (1:1, v/v) along with the IS, dexmedetomidine (1 ng/mL). After a 20-fold dilution, the mixture was centrifuged at 13,800×g for 10 min at 4°C. The supernatants were used to measure the levels of metabolites from the respective probe substrates using an LC-MS-MS method. The half-maximal inhibitory concentration (IC50) values were subsequently calculated.

CYP 2D6 = CYP 2D6 (Homo sapiens, UniProt P10635); experiment: CYP inhibition, cocktail-substrate method in HLM; parameters: 0.5 mg/mL HLM, 1 mmol/L NADPH, and a cocktail of 10 probe substrates for 9 CYP isoforms; tissue BD (Woburn, USA); host or cells: pooled human liver microsomes
Protocol: as §1

CYP 1A2 [1] = biological target: T1, CYP 1A2 (Homo sapiens, UniProt P05177); experiment: CYP inhibition, cocktail-substrate method in HLM; parameters: 0.5 mg/mL HLM, 1 mmol/L NADPH, and a cocktail of 10 probe substrates for 9 CYP isoforms; tissue BD (Woburn, USA); host or cells: pooled human liver microsomes
T1 sequence (P05177 1-516): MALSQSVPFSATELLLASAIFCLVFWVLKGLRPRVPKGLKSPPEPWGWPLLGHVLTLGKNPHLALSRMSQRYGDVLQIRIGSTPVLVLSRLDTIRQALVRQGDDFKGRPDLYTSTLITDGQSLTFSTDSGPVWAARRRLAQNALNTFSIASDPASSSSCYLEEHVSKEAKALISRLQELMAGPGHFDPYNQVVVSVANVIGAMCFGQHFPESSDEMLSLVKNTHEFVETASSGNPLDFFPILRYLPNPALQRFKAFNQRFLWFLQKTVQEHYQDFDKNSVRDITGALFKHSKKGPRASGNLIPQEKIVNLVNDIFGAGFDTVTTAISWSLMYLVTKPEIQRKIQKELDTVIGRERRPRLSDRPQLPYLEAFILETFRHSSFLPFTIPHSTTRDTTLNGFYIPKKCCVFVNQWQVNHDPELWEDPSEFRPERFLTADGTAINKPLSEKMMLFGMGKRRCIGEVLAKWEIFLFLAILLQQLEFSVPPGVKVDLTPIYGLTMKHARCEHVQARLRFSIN
Protocol: as §1

CYP 2C9 = CYP 2C9 (Homo sapiens, UniProt P11712); experiment: CYP inhibition, cocktail-substrate method in HLM; parameters: 0.5 mg/mL HLM, 1 mmol/L NADPH, and a cocktail of 10 probe substrates for 9 CYP isoforms; tissue BD (Woburn, USA); host or cells: pooled human liver microsomes; conditions: probe tolbutamide
Protocol: as §1

CYP 3A4 = CYP 3A4 (Homo sapiens, UniProt P08684); experiment: CYP inhibition, cocktail-substrate method in HLM; parameters: 0.5 mg/mL HLM, 1 mmol/L NADPH, and a cocktail of 10 probe substrates for 9 CYP isoforms; tissue BD (Woburn, USA); host or cells: pooled human liver microsomes; conditions: probes testosterone and midazolam
Protocol: as §1

CYP 1A2 [2] = biological target: T1, CYP 1A2; experiment: Phenotyping with recombinant human CYP 1A2; parameters: purchased BD (Woburn, USA); conditions: 5 μmol/L, 25 pmol/mL CYP, 1 h
Protocol: Ammoxetine (final concentration 5 μmol/L) was incubated with recombinant human CYP 3A4, CYP 1A2, CYP 2C9, CYP 2C19, and CYP 2D6 (final concentration 25 pmol/mL) in a 5 mmol/L K2HPO4 buffer at pH 7.4. The incubations were performed in quintuplicate. NADPH (final concentration 1 mmol/L) was added to initiate the incubation process. The mixture was then incubated at 37°C for 1 h. To stop the reaction, 200 μL of ice-cold acetonitrile/methanol (1:1, v/v) containing 500 ng/mL of L-phencynonate (IS) was added. The samples were vortexed for 2 min and centrifuged at 13,800×g and 4°C for 10 min. The supernatants obtained were analyzed using an LC-MS-MS method. To establish appropriate controls, zero-time controls and blank controls in the absence of NADPH were set up in parallel.

Sequence of CYP 2D6 (P10635 whole entry, canonical isoform): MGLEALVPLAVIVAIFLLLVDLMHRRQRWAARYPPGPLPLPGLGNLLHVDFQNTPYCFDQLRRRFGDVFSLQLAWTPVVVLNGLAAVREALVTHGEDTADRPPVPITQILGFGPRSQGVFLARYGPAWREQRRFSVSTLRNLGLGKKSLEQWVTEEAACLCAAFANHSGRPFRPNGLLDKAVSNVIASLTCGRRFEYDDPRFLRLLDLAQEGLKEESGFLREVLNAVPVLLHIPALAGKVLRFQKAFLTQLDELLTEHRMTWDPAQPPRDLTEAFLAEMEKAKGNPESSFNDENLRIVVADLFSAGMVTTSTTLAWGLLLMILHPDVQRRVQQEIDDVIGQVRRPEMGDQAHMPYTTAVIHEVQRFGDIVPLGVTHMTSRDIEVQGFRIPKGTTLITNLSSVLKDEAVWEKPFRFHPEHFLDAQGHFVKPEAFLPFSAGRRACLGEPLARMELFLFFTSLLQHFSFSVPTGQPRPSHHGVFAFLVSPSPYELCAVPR
Sequence of CYP 2C19 (P33261 whole entry, canonical isoform): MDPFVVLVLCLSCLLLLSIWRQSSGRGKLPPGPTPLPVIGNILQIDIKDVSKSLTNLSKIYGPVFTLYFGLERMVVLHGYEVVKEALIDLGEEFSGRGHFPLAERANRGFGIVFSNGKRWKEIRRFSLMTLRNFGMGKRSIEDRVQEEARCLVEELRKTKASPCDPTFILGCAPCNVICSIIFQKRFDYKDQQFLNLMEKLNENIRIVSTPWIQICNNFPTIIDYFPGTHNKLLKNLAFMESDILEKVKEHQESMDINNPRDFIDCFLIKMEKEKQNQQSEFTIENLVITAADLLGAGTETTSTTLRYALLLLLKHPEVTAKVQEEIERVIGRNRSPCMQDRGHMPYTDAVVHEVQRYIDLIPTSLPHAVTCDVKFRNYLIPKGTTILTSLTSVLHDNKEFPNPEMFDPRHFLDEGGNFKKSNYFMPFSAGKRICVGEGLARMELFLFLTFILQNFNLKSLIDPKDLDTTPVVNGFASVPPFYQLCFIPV
Sequence of CYP 2C9 (P11712 whole entry, canonical isoform): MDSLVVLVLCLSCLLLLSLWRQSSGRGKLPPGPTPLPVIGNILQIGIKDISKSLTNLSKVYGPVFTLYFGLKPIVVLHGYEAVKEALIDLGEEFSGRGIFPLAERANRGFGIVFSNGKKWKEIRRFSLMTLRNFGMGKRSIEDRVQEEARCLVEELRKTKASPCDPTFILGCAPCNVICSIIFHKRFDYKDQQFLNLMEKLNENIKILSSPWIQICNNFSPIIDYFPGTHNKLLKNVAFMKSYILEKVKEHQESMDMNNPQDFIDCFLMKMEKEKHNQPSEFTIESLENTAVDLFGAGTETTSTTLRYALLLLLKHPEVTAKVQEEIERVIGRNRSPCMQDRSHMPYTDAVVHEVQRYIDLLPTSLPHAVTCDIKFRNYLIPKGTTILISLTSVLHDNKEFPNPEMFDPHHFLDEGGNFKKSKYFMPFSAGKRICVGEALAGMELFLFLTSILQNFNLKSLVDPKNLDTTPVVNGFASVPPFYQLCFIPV
Sequence of CYP 3A4 (P08684 whole entry, canonical isoform): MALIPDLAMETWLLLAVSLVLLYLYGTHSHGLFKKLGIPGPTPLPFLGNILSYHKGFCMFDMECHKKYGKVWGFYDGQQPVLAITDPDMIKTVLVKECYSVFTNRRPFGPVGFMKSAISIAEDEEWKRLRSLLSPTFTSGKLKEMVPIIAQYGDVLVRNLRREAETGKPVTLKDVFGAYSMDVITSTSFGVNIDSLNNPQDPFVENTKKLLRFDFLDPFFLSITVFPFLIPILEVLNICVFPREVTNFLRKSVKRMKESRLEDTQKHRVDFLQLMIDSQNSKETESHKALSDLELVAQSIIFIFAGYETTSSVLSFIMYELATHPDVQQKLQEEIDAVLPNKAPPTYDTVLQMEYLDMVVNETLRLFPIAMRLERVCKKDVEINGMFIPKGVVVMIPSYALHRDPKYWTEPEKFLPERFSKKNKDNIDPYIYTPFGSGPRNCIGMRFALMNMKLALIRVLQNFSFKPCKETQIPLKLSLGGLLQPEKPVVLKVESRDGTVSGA

Q: What does the source list for `CNCC[C@H](Oc1cccc2c1OCO2)c1cccs1` [ammoxetine]?
A: IC50 (CYP 2C19): > 100 µM; IC50 (CYP 2D6; HLM, probe dextromethorphan): > 100 µM; probe substrate levels, % of the original blank group (CYP 2D6; ammoxetine 100 μmol/L): approximately 65.86%; IC50 (CYP 1A2 [1]; HLM, probe phenacetin): > 100 µM; probe substrate levels, % of the original blank group (CYP 1A2 [1]; ammoxetine 100 μmol/L): ~72.30%; IC50 (CYP 2C9): > 100 µM; IC50 (CYP 3A4): > 100 µM; Transformation ratio% (CYP 1A2 [2]): 14.04±2.29%; residuary concentration of ammoxetine, Mean±SD (CYP 1A2 [2]): 5.89±0.16
